From PubChem BioAssay AID515 (SGCOxCompounds, 2006)

Biological target: Mitogen-activated protein kinase kinase kinase 5 (Homo sapiens) (UniProt Q99683)
Experiment: MAP3K5 (ASK1) binders by thermal shift, biophysical, DSF, SYPRO orange, recombinant protein (AID 515)
Conditions: at 10 µM, buffer 10 mM HEPES, pH 7.5, NaCl 150 mM, stronger effect = higher value

Chain of Mitogen-activated protein kinase kinase kinase 5 (Homo sapiens) (Q99683 whole entry, looked up): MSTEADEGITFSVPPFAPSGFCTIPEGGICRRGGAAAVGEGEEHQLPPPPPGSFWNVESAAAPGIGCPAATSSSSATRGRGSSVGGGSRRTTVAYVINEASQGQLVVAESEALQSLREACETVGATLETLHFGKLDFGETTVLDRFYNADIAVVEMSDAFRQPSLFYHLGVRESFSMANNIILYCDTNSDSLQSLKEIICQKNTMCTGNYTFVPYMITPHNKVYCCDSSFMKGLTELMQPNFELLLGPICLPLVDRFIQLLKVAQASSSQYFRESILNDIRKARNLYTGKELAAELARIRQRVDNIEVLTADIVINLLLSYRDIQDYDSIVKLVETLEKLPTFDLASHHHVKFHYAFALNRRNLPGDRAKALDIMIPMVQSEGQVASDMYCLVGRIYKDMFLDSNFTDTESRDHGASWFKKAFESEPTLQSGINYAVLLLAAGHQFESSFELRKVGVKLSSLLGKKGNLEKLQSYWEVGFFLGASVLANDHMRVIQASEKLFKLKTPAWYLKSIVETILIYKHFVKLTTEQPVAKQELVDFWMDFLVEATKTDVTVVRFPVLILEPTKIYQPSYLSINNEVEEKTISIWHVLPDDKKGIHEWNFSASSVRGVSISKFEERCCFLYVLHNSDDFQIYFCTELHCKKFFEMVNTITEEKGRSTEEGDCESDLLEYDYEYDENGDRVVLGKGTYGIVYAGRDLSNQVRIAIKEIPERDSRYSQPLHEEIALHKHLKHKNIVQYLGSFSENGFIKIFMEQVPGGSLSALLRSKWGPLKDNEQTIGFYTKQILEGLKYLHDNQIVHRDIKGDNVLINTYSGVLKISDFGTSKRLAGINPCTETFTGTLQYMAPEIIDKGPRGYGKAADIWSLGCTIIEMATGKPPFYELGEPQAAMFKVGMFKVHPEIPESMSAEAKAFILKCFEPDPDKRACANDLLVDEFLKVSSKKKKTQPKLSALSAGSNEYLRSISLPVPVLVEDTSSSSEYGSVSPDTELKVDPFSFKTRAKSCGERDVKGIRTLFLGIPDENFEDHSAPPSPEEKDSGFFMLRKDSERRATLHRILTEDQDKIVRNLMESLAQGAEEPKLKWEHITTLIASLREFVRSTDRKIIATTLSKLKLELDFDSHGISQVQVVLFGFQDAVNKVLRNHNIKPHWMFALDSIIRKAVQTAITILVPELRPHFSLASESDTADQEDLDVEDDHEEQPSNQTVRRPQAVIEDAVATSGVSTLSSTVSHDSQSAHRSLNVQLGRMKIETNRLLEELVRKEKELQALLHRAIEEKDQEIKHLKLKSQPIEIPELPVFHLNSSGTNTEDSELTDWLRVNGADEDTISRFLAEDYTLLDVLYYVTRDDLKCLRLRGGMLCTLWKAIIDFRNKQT

Compound	Tm shift [Celsius]
O=C(Nc1ccc(N2CCOCC2)cc1)Nc1ccc(Cl)c(Cl)c1	5.7
O=C1Nc2ccccc2/C1=C\c1cnc[nH]1	4.76
OCC(O)CCO/N=C1/C(c2c(O)[nH]c3ccccc23)=Nc2ccccc21 (stereo not drawn)	5.6
O=c1[nH]cnc2scc(-c3cccs3)c12	3.7
O=Nc1c(-c2c(O)[nH]c3ccc(I)cc23)[nH]c2ccccc12	5.72
COc1cccc(N=Cc2c(O)[nH]c3ccccc23)c1	3.2
O=c1c(O)c(-c2ccc(O)c(O)c2)oc2cc(O)cc(O)c12	3.7
O=Nc1c(-c2c(O)[nH]c3ccc(S(O)(O)O)cc23)[nH]c2ccccc12	4.04
O=Nc1c(-c2c(O)[nH]c3ccccc23)[nH]c2ccccc12	6.1
Cc1c2ccncc2c(C)c2c1[nH]c1ccccc12	6.3
CC1N=C2SC=CN2C(=O)C1CCN1CCC(=C(c2ccccc2)c2ccc(F)cc2)CC1 (stereo not drawn)	4.8
Nc1nc(Nc2ccc(S(N)(=O)=O)cc2)nn1C(=S)Nc1c(F)cccc1F	16.9
N#Cc1ccc(-c2cnc3ccc(NC4CCOCC4)nn23)cc1	3.5
Cn1cc(/C=C2\C(=O)Nc3ccc(S(N)(=O)=O)cc32)c2ccccc21	10
Cc1ccc2c(c1)=C(c1[nH]c(=S)[nH]c1O)C(=O)N=2	4.5
NC1=N/C(=C2/CCNC(=O)c3[nH]c(Br)cc32)C(=O)N1	8.7
O=C(c1ccc(Nc2nccc(-c3cc4ccccc4s3)n2)cc1)N1CCC(N2CCCC2)CC1	5.1
CCOc1c(Br)ccc2c1sc1nc[nH]c(=O)c12	3.9

Same assay, conditions: at 10 µM, buffer 10 mM HEPES, pH 7.5, NaCl 150 mM, with 50 µM L-Arg/L-Glu (1:1), stronger effect = higher value

Compound	Tm shift [Celsius]
CCN(CC)CCNC(=O)c1c(C)[nH]c(/C=C2\C(=O)Nc3ccc(Cl)cc32)c1C	6.43
O=C1NCc2c1c1c3ccccc3[nH]c1c1[nH]c3ccccc3c21	8.53
NC(=O)Nc1sc(-c2ccccc2)cc1C(N)=O	5.94
CC(C)(C)c1nc2c3cc[nH]c(=O)c3c3cc(F)ccc3c2[nH]1	8.26
COc1ccc2c(c1)/C(=C/c1cnc[nH]1)C(=O)N2	5.19
O=C1c2ccccc2-c2n[nH]c3cccc1c23	8.63
CC1N=C2SC=CN2C(=O)C1CCN1CCC(=C(c2ccccc2)c2ccc(F)cc2)CC1 (stereo not drawn)	6.07
O=Nc1c(-c2c(O)[nH]c3cc(Br)ccc23)[nH]c2ccccc12	8.7
O=c1c(O)c(-c2ccc(O)c(O)c2)oc2cc(O)ccc12	3.96
NC1=N/C(=C2\CCNC(=O)c3[nH]ccc32)C(=O)N1	4.65
Cc1cc(C=C2C(=O)C=CC2=O)cc(C)c1O	3.1
O=C1Nc2ccccc2/C1=C/c1ccc[nH]1	5.01
CC(O)(O)C1(O)C[C@@H]2O[C@@]1(C)n1c3ccccc3c3c4c(c5c6ccccc6n2c5c31)C(=O)NC4 (stereo partly drawn)	14.1
O=C1NC(=O)c2c1c1c3ccccc3n3c1c1c2c2ccccc2n1[C@@H]1CCC3O1	6.97
NC1=N/C(=C2/CCNC(=O)c3[nH]c(Br)cc32)C(=O)N1	12.5
